In patent US3984482A, “2-(Dihalobenzyl)-6-nitro-4-t-butylphenol and preparation thereof” (Institut de Recherches Chimiques et Biologiques Appliquees …, priority 1967, dated 1976) one finds LD50, MTD and inhibiting dilution data, which are given here for eleven molecules.

Data set [1] in a line: Acute toxicity per os in mice (LD 50, maximum tolerated dose). Type of data set: in vivo. The conditions noted are these: mouse, po; for LD50: read-out: Approximate LD 50; for MTD: read-out: Approximate maximum tolerated dose. On the procedure: The acute toxicity per os was determined in mice by the following method. Different doses of each compound were each tested on 10 mice, both male and female, weighing on average from 18 to 22 g; each dose was administered as a suspension in 10% gum arabic or olive oil and each mouse was given a uniform dose of 0.4 ml per 20 g weight of mouse with the aid of a probang.
The mice were starved for two hours before the experiment and the temperatures and behaviour of the animals were observed before the test and 11/2 and 3 hours after ingestion of the compound. After this time they were replaced in their cages and observed for several days.
The number of dead was counted daily and from this was deduced the lethal dose 50 (LD 50), the maxmum tolerated dose (MTD) and the minimum mortal dose MMD).

The next data set deals with London staphylococcus. Description: Bacteriostatic activity in vitro by progressive dilution in culture broth, London staphylococcus. Type of data set: cell-based, Gram-positive London staphylococcus. The following applies: conditions under which the compounds of Formula I were tested. How it is done:
The bacteriostatic activities in vitro of the compounds of Formula I were determined by comparing them with known products, particularly of analogous series. The activity was determined with respect to the specific Gram-positive London staphylococcus as a reference strain for all the compounds.
The test was carried out in a culture broth of the following formula: […]
Indole-free bacteriological peptone
Sodium chloride 5% by weight
The method used involved progressive dilution of the principle tested. The dilutions varied by thousandths between concentrations of one thousandth and one tenth of a thousandth, and by 10 thousandths for concentrations between one tenth of a thousandth and 1/100 of a thousandth, and by hundred thousandths for concentrations between 1/100 of a thousandth and one millionth. If the product was found active at a dilution of one millionth, a new range was made from millionth to millionth to beyond one millionth.
Two dilution series were made independently and the results of the two series must be identical. The readings were carried out after 24 hours.
The figure given in the table is that of the maximum dilution at which the growth of London staphylococcus is inhibited.

Like-named read-outs stand apart in the source and are kept apart here.

As to `CCC(C)c1ccc(O)c(Cc2ccc(Cl)cc2)c1` (stereo not shown) [Example 1, 2-(4'-chlorobenzyl)-4-sec-butylphenol], in data set [1] (solvent 10% gum), the LD50 turned out to be 1000 mg/kg and the MTD amounted to 500 mg/kg.
`CC(C)c1ccc(O)c(Cc2ccc(Cl)cc2)c1` [Example 2, 2-(4'-chlorobenzyl)-4-isopropylphenol]: in data set [1] (solvent olive oil), the LD50 stood at 1700 mg/kg and the MTD worked out at 500 mg/kg.
For the molecule `CC(C)(C)c1ccc(O)c(Cc2ccc(Cl)cc2)c1` [Example 3, 2-(4'-chlorobenzyl)-4-t-butylphenol], the LD50 in data set [1] (solvent 10% gum) amounted to 1900 mg/kg.
Consider `CC(C)c1ccc(O)c(Cc2ccc(Cl)cc2Cl)c1` [Example 4, 2-(2',4'-dichlorobenzyl)-4-isopropylphenol], for which, in data set [1] (solvent olive oil), the LD50 was determined as 1700 mg/kg and the MTD stood at 500 mg/kg.
With `CC(C)(C)c1ccc(O)c(Cc2ccc(Cl)cc2Cl)c1` [Example 5, 2-(2',4'-dichlorobenzyl)-4-t-butylphenol], in data set [1] (solvent olive oil), the LD50 came out at 1700 mg/kg and the MTD came to 500 mg/kg.
In the same order, the values of `CC(C)(C)c1ccc(O)c(Cc2ccc(Cl)c(Cl)c2)c1` [Example 7, 2-(3',4'-dichlorobenzyl)-4-t-butylphenol] are 1500 mg/kg and 500 mg/kg.
The corresponding values for `CCC(C)c1ccc(O)c(Cc2ccc(Cl)c(Cl)c2)c1` (stereo not shown) [Example 8, 2-(3',4'-dichlorobenzyl)-4-s-butylphenol] are 2400 mg/kg and 1000 mg/kg.
As for `CC(C)(C)c1cc(Cl)c(O)c(Cc2ccc(Cl)c(Cl)c2)c1` [Example 9, 2-(3',4'-dichlorobenzyl)-6-chloro-4-t-butylphenol], in data set [1] (solvent olive oil), the LD50 is more than 2500 mg/kg and the MTD worked out at 500 mg/kg.
In the same order, the values of `CC(C)(C)c1cc(Cl)c(O)c(Cc2ccc(Cl)cc2Cl)c1` [Example 10, 2-(2',4'-dichlorobenzyl)-6-chloro-4-t-butylphenol] are 1500 mg/kg and 500 mg/kg.
Regarding `Cc1ccc(O)cc1` [Para-cresol], in the data set on London staphylococcus, the inhibiting dilution is given as 1/4000.
Take `Oc1ccccc1` [Phenol]: the inhibiting dilution with London staphylococcus was 1/1000.
